The values below come from PMC7357788, “Overlapping functions and protein-protein interactions of LRR-extensins in Arabidopsis” (PLoS Genetics, 2020).

In assay [1] the target is LRX5 (LRX5^ΔE-FLAG). Description: BLITZ (biolayer interferometry) RALF1-LRX5 binding. Also on record: species or system Arabidopsis thaliana. To be noted: purified LRX^ΔE expressed in N. benthamiana, synthetic RALF1 peptide, association 120 s, dissociation 120 s. As for the experimental part:
(§1) The kinetics of the interaction of LRX proteins with RALF1 were tested with Biolayer Interferometry (BLITZ). The LRX^ΔE-FLAG proteins of LRX1, LRX3, LRX4, and LRX5 used for this experiment were expressed transiently in tobacco. […] For RALF1, in vitro synthesized peptide was used. […] While the LRX^ΔE-FLAG had to be soluble in order to get purified prior to application on the sensor (for details, see Materials and Methods), it cannot be completely ruled out that LRX3^ΔE-FLAG has a reduced solubility in this experiment that would provide an alternative explanation for the observed high Kd.
(§2) The BLITZ experiments were performed as previously described. The LRR^ΔE–FLAG versions of the different LRXs were expressed using the 35S promoter in N. benthamiana, presence of proteins was checked by immunoblotting, and proteins were immune-precipitated as described above. […] Protein concentration was determined by Qubit measurement (Quant-iTTM Protein Assay kit, Invitrogen). […] Different RALF synthetic peptide (PHTD peptides) concentrations (200 μM, 150 μM, 100 μM, 50 μM, 20 μM, 15 μM, 10 μM, 4 μM, 2 μM and 0.2 μM) were added to quantify the protein interaction.
(In BLI a coated tip is dipped into the sample, and binding shifts an interference pattern.)

Assay [2] relates to LRX1. Kind of assay: Yeast-two-hybrid RALF1-LRX1. The format is binding, Arabidopsis thaliana. To be noted: Y2H, yeast strain PJ69-4A, growth on -Trp, Leu, His, Ade drop-out medium. An excerpt: (§3) The BD-LRX4 and AD-FER^ECD constructs for the Yeast-two-hybrid experiment were cloned as previously described, where NtermFER equals AD-FER^ECD and LRR4 equals BD-LRX4. For the BD-LRX1/2/3/5 constructs, the coding sequence of the LRR domain of the LRXs was amplified using primers (S3 Table) to introduce a BamHI and a XhoI site at the 5’ and 3’ end of the PCR fragments, respectively. These were cloned into pJET1.2 (Thermo Scientific) and correct clones were cut with BamHI and XhoI and ligated into pGBKT7 cut with BamHI and SalI. The AD-RALF1 construct was cloned into pJET1.2 (Thermo Scientific) by amplification of the coding sequence with the primers y2h_RALF1_F and y2h_RALF1_R. A correct clone was cut with EcoRI and XmaI and ligated into pGADT7 cut with EcoRI and XmaI.
(§4) Transformation of the yeast strain PJ69-4A [63] was done following standard procedures and quadruple drop-out medium lacking Leu, Trp, His, and Ade were used to screen for positive interactions after 4 days incubation at 30°C. Three different colonies containing both vectors were mixed and plated in triplicates on quadruple drop-out medium.
(§5) Supplementary file pgen.1008847.s002.pdf: S2 Fig Interaction of LRX1 and RALF1 in yeast. The yeast strain PJ69-4A was transformed with pGADT7-RALF1 and pGBKT7-LRR1 or pGBKT7-LRR4, and with either of the constructs with empty plasmids for the negative controls. […]

In assay [3] the test system is LRX4. The settings on record: ref [15],[41]; cited from earlier work.
The subject of assay [4] is Arabidopsis seedlings. Description: Root growth inhibition assay. The format is in vivo, Arabidopsis thaliana. To be noted: five days in liquid medium, 1 μM RALF1, student T-test, n = 6, p<0.001 vs control. An excerpt:
Supplementary file pgen.1008847.s003.pdf: S3 Fig Synthetic RALF1 peptide activity. […] Error bars represent standard error of the mean. (PDF) Click here for additional data file.

Assay [5] has as its system LRX1^ΔE. Kind of assay: Co-IP of LRX1^ΔE-HA with RALF1-FLAG. The assay is classed as binding, Arabidopsis thaliana. To be noted: Co-IP and immunoblotting, transient expression in N. benthamiana. As for the experimental part: Here, we tested binding of RALF1 to LRX1.
(§6) For pulldown and Co-IP analysis of the different constructs indicated in the experiments DNA was infiltrated into Nicotiana benthamiana leaves, and after 48 hrs, the leaves were excised and ground in liquid nitrogen as described in [62]. Two hundred mg of tissue powder was re-suspended in 500 μL extraction buffer [200 mM Tris-HCl (pH 7.5), 150 mM NaCl, 1 mM PMSF, protease inhibitor and 0.5% Triton X-100]. The suspension was incubated on ice for 30 minutes and then centrifuged at 11,000 rpm for 20 minutes at 4°C. The supernatant (200 μL) was then incubated with 10 μL anti-HA (Thermo Scientific, 88837), or anti-FLAG magnetic beads overnight at 4°C on a rotating shaker. If RALF1 peptide was added, the peptide was diluted in such way that for every sample 1μL of peptide was added to the protein extracts. After incubation, the beads were washed five times with the wash buffer (extraction buffer containing 0.05% Triton X-100) and boiled in SDS-PAGE loading buffer for 15 minutes at 75°C. The immunoprecipitates were then run on an SDS-PAGE gel and transferred to nitrocellulose membrane to perform immunoblotting using the following antibodies: anti-FLAG M2 (Sigma-Aldrich, F3165), anti-GFP (Biolegend, 902601), anti-HA-HRP 3F10 (Roche, 12 013 819 001) and anti-mouse-HRP (Sigma Aldrich, A 4416). […]
(In western blotting, separated proteins are transferred to a membrane and probed.)

Assay [6] deals with LRX1 (LRX1^ΔE-FLAG). Description: BLITZ (biolayer interferometry) RALF1-LRX1 binding. Also on record: species or system Arabidopsis thaliana. To be noted: purified LRX^ΔE expressed in N. benthamiana, synthetic RALF1 peptide, association 120 s, dissociation 120 s. How it is done: as §1, §2
Chain of LRX1 (LRX1^ΔE-FLAG) (O65375 27-381 limits assumed, stated change not applied): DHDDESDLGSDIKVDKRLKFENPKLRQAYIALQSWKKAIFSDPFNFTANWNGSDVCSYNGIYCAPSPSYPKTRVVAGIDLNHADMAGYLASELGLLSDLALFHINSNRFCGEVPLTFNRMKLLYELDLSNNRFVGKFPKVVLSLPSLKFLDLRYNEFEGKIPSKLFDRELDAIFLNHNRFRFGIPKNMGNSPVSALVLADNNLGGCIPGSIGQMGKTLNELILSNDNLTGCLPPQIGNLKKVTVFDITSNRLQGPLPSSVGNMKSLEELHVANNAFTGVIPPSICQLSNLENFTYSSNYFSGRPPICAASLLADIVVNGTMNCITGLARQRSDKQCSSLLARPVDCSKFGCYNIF
(§7) Supplementary file pgen.1008847.s004.pdf: S4 Fig BLITZ output data. […] Association/dissociation or RALF1 depends on the concentration of applied RALF1, based on which the Kd is calculated. […]

The test system of assay [7] is LRX1^ΔE-FER^ECD interaction. Description: Co-IP: effect of added RALF1 on LRX1^ΔE-FER^ECD interaction. The assay is classed as binding, Arabidopsis thaliana. The settings on record: synthetic RALF1 peptide 50, 100, 200, 1000 nM added to extracts.
Excerpt: In a next step, the dynamics of LRX-RALF1-FER interaction was investigated with a focus on LRX1. To this end, extracts used to show Co-IP of LRX1^ΔE and FER^ECD were supplemented with increasing concentrations of RALF1 peptide.
as §6, with “75°C.” for “75°C. The immunoprecipitates were then run on an SDS-PAGE gel and transferred to nitrocellulose membrane to perform immunoblotting using the following antibodies: anti-FLAG M2 (Sigma-Aldrich, F3165), anti-GFP (Biolegend, 902601), anti-HA-HRP 3F10 (Roche, 12 013 819 001) and anti-mouse-HRP (Sigma Aldrich, A 4416).”

Assay [8] concerns LRX4. Description: Yeast-two-hybrid RALF1-LRX4. The assay is classed as binding, Arabidopsis thaliana. To be noted: Y2H, yeast strain PJ69-4A, growth on -Trp, Leu, His, Ade drop-out medium.
Excerpt: as §3, §4, §5

Assay [9] has as its system FER. The settings on record: ref [15],[41]; cited from earlier work.
Assay [10] has as its system LRX3 (LRX3^ΔE-FLAG). Kind of assay: BLITZ (biolayer interferometry) RALF1-LRX3 binding. Also on record: species or system Arabidopsis thaliana. The settings on record: compared with LRX1, LRX4, and LRX5. How it is done: as §1, §2
For assay [11], the target named is LRX4 (LRX4^ΔE-FLAG). Description: BLITZ (biolayer interferometry) RALF1-LRX4 binding. Also on record: species or system Arabidopsis thaliana. To be noted: purified LRX^ΔE expressed in N. benthamiana, synthetic RALF1 peptide, association 120 s, dissociation 120 s. How it is done:
as §1, §2, §7

Assay [12] deals with LRX3, LRX4, and LRX5. The settings on record: vegetative tissues; ref [40],[41]; cited from earlier work. The text has this:
LRX proteins were recently identified as high-affinity binding sites for RALF peptides, with the binding spectrum differing among the LRXs. […] Whether and how the binding of RALFs and FER to LRXs influences the interaction of these proteins remains to be investigated. It is also unknown to what extent the different LRXs are functionally similar and whether they share FER as a common interaction ...

“Also recorded” adds a separate entry of the source.

Chain of LRX4 (LRX4^ΔE-FLAG) (Q9LHF1 26-403 limits assumed, stated change not applied): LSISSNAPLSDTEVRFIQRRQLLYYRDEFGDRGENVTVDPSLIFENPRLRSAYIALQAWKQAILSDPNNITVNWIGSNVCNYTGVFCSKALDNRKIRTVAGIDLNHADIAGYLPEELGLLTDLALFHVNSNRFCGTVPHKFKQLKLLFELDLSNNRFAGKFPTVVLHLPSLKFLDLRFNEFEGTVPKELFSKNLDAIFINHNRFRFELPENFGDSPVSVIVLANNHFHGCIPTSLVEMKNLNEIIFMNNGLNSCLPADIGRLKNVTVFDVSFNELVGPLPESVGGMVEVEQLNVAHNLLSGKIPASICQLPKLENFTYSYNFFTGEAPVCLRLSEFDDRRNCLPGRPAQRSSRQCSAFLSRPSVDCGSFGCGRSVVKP
Chain of LRX5 (LRX5^ΔE-FLAG) (Q9SN46 32-405 limits assumed, stated change not applied): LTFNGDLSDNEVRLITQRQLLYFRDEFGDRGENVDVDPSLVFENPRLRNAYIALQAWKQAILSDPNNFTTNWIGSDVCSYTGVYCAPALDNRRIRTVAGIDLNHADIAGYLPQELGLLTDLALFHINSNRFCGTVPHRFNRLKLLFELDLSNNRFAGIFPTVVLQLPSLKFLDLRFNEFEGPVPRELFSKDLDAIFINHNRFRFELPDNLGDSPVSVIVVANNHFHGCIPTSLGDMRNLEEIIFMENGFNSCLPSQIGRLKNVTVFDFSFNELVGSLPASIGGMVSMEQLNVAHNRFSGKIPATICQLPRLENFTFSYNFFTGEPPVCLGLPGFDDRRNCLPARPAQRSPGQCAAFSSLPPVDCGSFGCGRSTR
Chain of LRX3 (LRX3^ΔE-FLAG) (Q9T0K5 21-388 limits assumed, stated change not applied): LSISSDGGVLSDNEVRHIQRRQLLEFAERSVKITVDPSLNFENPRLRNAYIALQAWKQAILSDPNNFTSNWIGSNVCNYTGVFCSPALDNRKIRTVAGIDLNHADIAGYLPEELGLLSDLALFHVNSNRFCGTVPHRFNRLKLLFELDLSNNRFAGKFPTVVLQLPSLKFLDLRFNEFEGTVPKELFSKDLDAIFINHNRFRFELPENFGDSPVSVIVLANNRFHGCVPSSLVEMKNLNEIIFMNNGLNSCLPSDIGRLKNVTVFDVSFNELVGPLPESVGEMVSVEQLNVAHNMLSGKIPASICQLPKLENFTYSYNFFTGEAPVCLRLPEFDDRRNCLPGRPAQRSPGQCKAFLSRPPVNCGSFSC

Regarding “RALF1: in vitro synthesized RALF1 peptide hormone (PHTD peptides); gene At1G02900; expressed as AD-RALF1 in yeast-two-hybrid (ATTKYISYQSLKRNSVPCSRRGASYYNCQNGAQANPYSRGCSKIARCRS; UniProt Q9SRY3 72-120, looked up)”, the dissociation constant (Kd) is 3.5 nM in assay [1], 4.5 nM in assay [6] and 5.5 nM in assay [11]. Besides, in [2], the “interaction with LRX1” value is recorded as “yeast cells grew effectively in the presence of the two proteins; also recorded: indicates interaction of the LRX proteins with RALF1”. Moreover, the “binding to LRX4” value in assay [3] is recorded as “has been shown to bind RALF1”. In assay [4], the root growth inhibition result is reported as “effectively inhibited root growth of Arabidopsis seedlings; also recorded: significantly inhibited root growth”. Besides, the “interaction with LRX1^ΔE” value in assay [5] is “shows binding to RALF1”. Also, in assay [7], the “effect on LRX1^ΔE-FER^ECD interaction” value is “does not influence the interaction of LRX1^ΔE with FER^ECD; also recorded: did not affect the interaction between LRX1^ΔE and FER^ECD”. In addition, the “interaction with LRX4” value in assay [8] is recorded as “indicates interaction of the LRX proteins with RALF1”. Also, the “binding to FER” value in assay [9] was “also interacts with FER”. The “affinity of LRX3 for RALF1, in words” value in assay [10] is given as “much lower affinity”. The “binding to LRX3, LRX4, and LRX5” value in assay [12] is on record as “reported to bind”.

The term Kd denotes the equilibrium constant for the complex coming apart. A high value points to a looser complex.
